The target of experiment [1] is T1, α4β2 nicotinic receptor (Homo sapiens, UniProt P17787+P43681).
T1 construct: expressed in transfected cells; host or cells: Xenopus laevis oocytes (nuclear cDNA injection)
As to the kind of experiment: Two-electrode voltage-clamp recording of ACh-induced currents in X. laevis oocytes expressing recombinant α4β2 nicotinic receptor. The class given is cell-based. The protocol:
(§1) Figure 1 Inhibitory effect of (-)-231C on ACh-induced currents in X. laevis oocytes expressing recombinant nicotinic receptors. Currents were recorded in the voltage-clamp mode at -60 mV. Concentrations of ACh used were 1 μM for the α4β2 receptor and 100 μM for the α7 receptor. For test responses, oocytes were preincubated with (-)-231C for 3 min and then exposed to ACh with (-)-231C. A, representative traces showing the ACh-elicited currents in the absence and presence of (-)-231C (3 μM). Horizontal bars indicate the period of perfusion with ACh for 5 s. Vertical scale bars represent 0.5 μA on the α4β2 receptor, and 0.1 μA on the α7 receptor. B, concentration-response curves for (-)-231C on recombinant nicotinic receptors. Current responses to ACh in the presence of (-)-231C in each oocyte were normalized to the ACh responses (control responses) recorded in the same oocytes. Values represent the mean ± S.E.M. for five to six separate experiments.
as §1, with “Figure 2” for “Figure 1”, “of (-)-221I” for “of (-)-231C”, “with (-)-221I” for “with (-)-231C”, “with (-)-221I.” for “with (-)-231C.”, “for (-)-221I” for “for (-)-231C”, “five” for “five to six”
as §1, with “Figure 3” for “Figure 1”, “of (-)-epi-193E” for “of (-)-231C”, “with (-)-epi-193E” for “with (-)-231C”, “with (-)-epi-193E.” for “with (-)-231C.”, “for (-)-epi-193E” for “for (-)-231C”, “five” for “five to six”
(§2) Xenopus laevis oocytes were prepared as described previously. In brief, stage V-VI oocytes were isolated and microinjected with cDNAs encoding nicotinic receptor subunit into the nucleus. The α7 subunit cDNA was injected alone, whereas the mixture of α4 and β2 subunit cDNAs was injected in a ratio of 1:1. Oocytes were cultured at 19 °C for 3-7 days. An oocyte was placed in a tube-like chamber in which Ringer’s solution (82.5 mM NaCl, 2.5 mM KCl, 2.5 mM CaCl2, 1 mM MgCl2, and 5 mM HEPES, pH 7.4) containing 1 µM atropine was perfused by gravity (15 ml/min). Current responses were recorded under two-electrode voltage-clamp method. To apply a pulse of acetylcholine (ACh) to the oocyte, the perfusion fluid was switched to solution containing ACh, using a three-way Teflon solenoid valve (Parker Hannifin Corp., General Valve Division, Fairfield, NJ) controlled by a PC computer with pClamp7 software (Axon Instruments, Union City, CA). […]
(Two-electrode voltage clamp is typically applied to oocytes expressing channels or transporters.)

The next experiment addresses T2, α7 nicotinic receptor (Homo sapiens, UniProt P36544).
T2 construct: expressed in transfected cells; host or cells: Xenopus laevis oocytes (nuclear cDNA injection)
Kind of experiment: Two-electrode voltage-clamp recording of ACh-induced currents in X. laevis oocytes expressing recombinant α7 nicotinic receptor. Type of experiment: cell-based. As to conditions: for fold higher potency for blockade of α7 than of α4β2 receptor: ratio of IC50 values, α7 over α4β2. The protocol:
as §1
as §1, with “Figure 2” for “Figure 1”, “of (-)-221I” for “of (-)-231C”, “with (-)-221I” for “with (-)-231C”, “with (-)-221I.” for “with (-)-231C.”, “for (-)-221I” for “for (-)-231C”, “five” for “five to six”
as §1, with “Figure 3” for “Figure 1”, “of (-)-epi-193E” for “of (-)-231C”, “with (-)-epi-193E” for “with (-)-231C”, “with (-)-epi-193E.” for “with (-)-231C.”, “for (-)-epi-193E” for “for (-)-231C”, “five” for “five to six”
as §2

Experiment [2] deals with nicotinic acetylcholine receptors. Also noted: method as in PMID 1815137. As to conditions: cited from earlier work.
In experiment [3] the target is T1, α4β2 nicotinic receptor. Further details: method as in PMID 15258256. The note with it: cited from earlier work.

SMILES strings stand for the structures. Where “and” joins values, the source holds several entries; their conditions need not be identical. Equal values may be shown once.

T1 sequence (P43681 29-627 limits assumed): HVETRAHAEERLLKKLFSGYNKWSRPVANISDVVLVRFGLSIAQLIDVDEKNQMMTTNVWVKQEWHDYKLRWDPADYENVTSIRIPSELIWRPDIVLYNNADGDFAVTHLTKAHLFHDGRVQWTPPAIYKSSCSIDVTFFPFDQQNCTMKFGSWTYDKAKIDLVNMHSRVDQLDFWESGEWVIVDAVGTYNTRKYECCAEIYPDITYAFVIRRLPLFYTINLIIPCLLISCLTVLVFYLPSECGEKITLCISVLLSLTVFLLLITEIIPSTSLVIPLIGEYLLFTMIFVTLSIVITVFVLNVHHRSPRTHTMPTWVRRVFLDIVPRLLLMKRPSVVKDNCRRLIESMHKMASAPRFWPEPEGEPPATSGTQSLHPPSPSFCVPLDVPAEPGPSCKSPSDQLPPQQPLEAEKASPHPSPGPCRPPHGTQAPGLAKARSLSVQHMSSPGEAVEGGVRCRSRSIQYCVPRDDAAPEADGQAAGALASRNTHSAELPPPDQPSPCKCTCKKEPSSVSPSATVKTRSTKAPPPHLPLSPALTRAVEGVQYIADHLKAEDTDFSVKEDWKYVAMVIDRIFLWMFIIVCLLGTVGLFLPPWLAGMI
T1 sequence (P17787 26-502): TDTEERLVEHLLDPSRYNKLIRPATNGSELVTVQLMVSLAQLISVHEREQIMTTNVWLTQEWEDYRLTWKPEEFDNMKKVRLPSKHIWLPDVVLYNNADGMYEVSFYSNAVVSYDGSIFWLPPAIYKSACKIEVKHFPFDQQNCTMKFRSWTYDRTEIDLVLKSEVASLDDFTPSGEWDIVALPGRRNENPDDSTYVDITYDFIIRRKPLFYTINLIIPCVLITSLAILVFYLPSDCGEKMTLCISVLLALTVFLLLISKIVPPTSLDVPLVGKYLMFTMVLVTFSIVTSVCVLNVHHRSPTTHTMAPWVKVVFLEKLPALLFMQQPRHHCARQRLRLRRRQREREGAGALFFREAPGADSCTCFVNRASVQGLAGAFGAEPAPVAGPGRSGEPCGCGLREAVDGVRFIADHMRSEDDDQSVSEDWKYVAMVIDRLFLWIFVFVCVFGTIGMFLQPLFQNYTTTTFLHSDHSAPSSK
T2 sequence (P36544 23-502): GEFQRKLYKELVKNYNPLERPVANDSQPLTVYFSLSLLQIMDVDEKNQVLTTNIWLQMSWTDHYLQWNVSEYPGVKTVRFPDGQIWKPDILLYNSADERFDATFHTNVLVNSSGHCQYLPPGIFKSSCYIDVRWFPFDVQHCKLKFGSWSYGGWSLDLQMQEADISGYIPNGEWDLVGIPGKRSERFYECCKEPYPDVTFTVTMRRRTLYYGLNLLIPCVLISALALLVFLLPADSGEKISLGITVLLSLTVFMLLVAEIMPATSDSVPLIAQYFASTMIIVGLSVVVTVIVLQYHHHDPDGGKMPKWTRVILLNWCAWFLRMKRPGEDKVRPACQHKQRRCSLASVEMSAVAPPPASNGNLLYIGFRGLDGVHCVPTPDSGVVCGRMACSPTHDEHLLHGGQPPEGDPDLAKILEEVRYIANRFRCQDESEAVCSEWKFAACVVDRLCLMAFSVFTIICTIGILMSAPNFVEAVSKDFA

For `CCC=CCC1CCC(CC)C2CCCN12` (single isomer, unassigned; (-)) [(-)-221I], the IC50 at α4β2 nicotinic receptor [1] was found to be 23.1 µM. Moreover, on α7 nicotinic receptor, the IC50 came to 4.4 µM and the “fold higher potency for blockade of α7 than of α4β2 receptor” value worked out at 5.3 fold.
As to `C=CCC1CCC(CC)C2CCCN12` (single isomer, unassigned; (-)) [(-)-epi-193E], the IC50 at α4β2 nicotinic receptor [1] was found to be 18 µM; at α7 nicotinic receptor it was 9.1 µM. The “fold higher potency for blockade of α7 than of α4β2 receptor” value on α7 nicotinic receptor was determined as 2.0 fold.
For `CCCCC[C@@H]1CC[C@@H](C)[C@@H]2CCCN12` [(-)-209B, (5S,8R,9S)-(-)-8-Methyl-5-pentyloctahydroindolizine], in experiment [2], the “mode of action at nicotinic receptors” value is given as “noncompetitive nicotinic blockers”.
Consider `C#C/C=C\CCC[C@@H]1CC[C@@H](C)[C@@H]2CCCN12` [(-)-231C, (5R,8R,9S)-(-)-5-Hept-4-en-6-ynyl-8-methyloctahydroindolizine], for which the results for the IC50 at α4β2 nicotinic receptor [1] and on α7 nicotinic receptor were 1.5 µM and 10.7 µM, respectively. In addition, on α4β2 nicotinic receptor [1] (3 μM compound, oocytes expressing α4β2 receptor), the “peak amplitude of ACh-elicited currents” value is “greatly decreased”. For the same compound, the “fold higher sensitivity/potency for blockade of α4β2 than of α7 receptor” value on α4β2 nicotinic receptor [1] (ratio of IC50 values, α4β2 over α7) was 7.0 fold and 6- to 7 fold. In addition, the ACh-elicited responses entry on α7 nicotinic receptor (3 μM compound, oocytes expressing α7 receptor) is “not strongly affected”.
For `CC/C=C\CCC[C@@H]1CC[C@@H](C)[C@@H]2CCCN12` [(-)-235B", (5R,8R,9S)-(-)-5-Hept-4-enyl-8-methyloctahydroindolizine], the “selectivity for blockade of α4β2 over α7 receptor” value at α4β2 nicotinic receptor [3] (previous data) is recorded as 6- to 7 fold. The “effect at the α4β2 nicotinic receptor” value on α4β2 nicotinic receptor [3] (several nicotinic receptor subtypes tested) is “selective and potent blocking effects”. In addition, the “potency at α4β2 receptor compared with dihydro-β-erythroidine” value on α4β2 nicotinic receptor [3] (versus classical α4β2 competitive antagonist) is recorded as “comparable”. The “potency in blocking the α4β2 receptor relative to (-)-231C” value on α4β2 nicotinic receptor [1] (fold greater than (-)-231C, previous (ref 3) versus present data) is “approximately 20 fold”. In experiment [2], the “mode of action at nicotinic receptors” value is listed as “noncompetitive nicotinic blockers”.

As usually defined, the IC50 is the concentration that inhibits the measured activity by half.
